Among the test systems are HL-60(TB) leukemia; UO-31 renal; MDA-N; DU-145 prostate; OVCAR-8 ovarian; EKVX NSCLC; HOP-62 NSCLC; SW-620 colon; CCRF-CEM leukemia; SF-295 CNS; ACHN renal; M14 melanoma; HT29 colon; RPMI-8226 leukemia; KM12 colon; NCI-H23 lung; SF-268 CNS; SNB-75 CNS.
What all share (experiment): DTP human tumour cell line panel, 48 h

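Five concentrations, 48 hours, 96-well plates. TGI: total growth inhibition.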

For `C/C(=N\NC(=S)NCCCNC(=S)N/N=C(\C)c1ccccn1)c1ccccn1`, the TGI with HL-60(TB) leukemia is above 30.2 µM; with UO-31 renal, above 54.1 µM; in the assay with MDA-N, above 100 µM; in the assay with DU-145 prostate, 33.9 µM; in the assay on OVCAR-8 ovarian it was 10.9 µM; in the assay on EKVX NSCLC, above 63.9 µM. Moreover, the TGI was 20.7 µM in the assay with HOP-62 NSCLC; above 100 µM in the assay with SW-620 colon; 9.4 µM in the assay with CCRF-CEM leukemia; 46.1 µM in the assay with SF-295 CNS; 16.6 µM with ACHN renal; 4.08 µM in the assay on M14 melanoma. In addition, the TGI in the assay on HT29 colon was above 100 µM; with RPMI-8226 leukemia, above 100 µM; with KM12 colon, above 76.1 µM; in the assay on NCI-H23 lung, above 54.4 µM; with SF-268 CNS, 21 µM; in the assay on SNB-75 CNS it was 31.7 µM.
For the molecule `CC(=O)OCc1ccc2oc(=O)c(C(=O)Oc3ccccc3)cc2c1`, the TGI in the assay with HL-60(TB) leukemia, in the assay with UO-31 renal, in the assay with MDA-N, in the assay on DU-145 prostate, in the assay with OVCAR-8 ovarian and in the assay with EKVX NSCLC was above 100 µM each time. For the same molecule, the TGI in the assay on HOP-62 NSCLC, in the assay on SW-620 colon, in the assay with CCRF-CEM leukemia, with SF-295 CNS, with ACHN renal and with M14 melanoma was above 100 µM in each case. Moreover, the TGI in the assay on HT29 colon, in the assay with RPMI-8226 leukemia, with KM12 colon, in the assay on NCI-H23 lung, with SF-268 CNS and with SNB-75 CNS was above 100 µM each time.
Consider `Cc1ccc(S(=O)(=O)NNCNC(=O)c2ccccc2)cc1`, for which the TGI is 48.2 µM in the assay with HL-60(TB) leukemia; above 100 µM with UO-31 renal; above 100 µM in the assay with MDA-N; above 100 µM in the assay with DU-145 prostate; above 100 µM in the assay on OVCAR-8 ovarian; above 100 µM in the assay on EKVX NSCLC. In addition, the TGI in the assay on HOP-62 NSCLC is above 100 µM; in the assay with SW-620 colon it was above 100 µM; in the assay on CCRF-CEM leukemia, 63.2 µM; with SF-295 CNS it was above 100 µM; in the assay on ACHN renal, above 100 µM; in the assay on M14 melanoma, above 100 µM. The TGI with HT29 colon, in the assay with RPMI-8226 leukemia, in the assay with KM12 colon, in the assay on NCI-H23 lung, in the assay with SF-268 CNS and in the assay with SNB-75 CNS was above 100 µM each time.
On to `CCCCn1c2c(n(CCCC)c1=S)-c1c(n(CCCC)c(=S)n1CCCC)SSc1c(n(CCCC)c(=S)n1CCCC)-c1c(n(CCCC)c(=S)n1CCCC)SSc1c(n(CCCC)c(=S)n1CCCC)-c1c(n(CCCC)c(=S)n1CCCC)SS2`, for which the concentration for total growth inhibition (TGI) with HL-60(TB) leukemia is 4.46 µM; in the assay with UO-31 renal, 16.5 µM; in the assay on MDA-N it was above 46 µM; in the assay with DU-145 prostate, above 50 µM; with OVCAR-8 ovarian, above 13.6 µM; in the assay with EKVX NSCLC, above 50 µM. Also, the TGI in the assay on HOP-62 NSCLC was above 50 µM; with SW-620 colon it was above 14.8 µM; in the assay on CCRF-CEM leukemia, above 14.7 µM; in the assay with SF-295 CNS, above 37 µM; in the assay with ACHN renal, 11.1 µM; with M14 melanoma, above 50 µM. Besides, the total growth inhibition concentration (TGI) is above 46.6 µM in the assay on HT29 colon; above 50 µM in the assay on RPMI-8226 leukemia; above 50 µM with KM12 colon; above 50 µM with NCI-H23 lung; above 30.2 µM with SF-268 CNS; above 50 µM in the assay with SNB-75 CNS.
Regarding `OCCNCNc1nc(NCNCCO)nc(N(CNCCO)CNCCO)n1`, the TGI was 63.8 µM in the assay on HL-60(TB) leukemia; above 73.9 µM in the assay on UO-31 renal; 38.4 µM with MDA-N; 44.3 µM in the assay on DU-145 prostate; 59.5 µM with OVCAR-8 ovarian; 57 µM in the assay with EKVX NSCLC. Besides, the TGI in the assay on HOP-62 NSCLC was 43.2 µM; with SW-620 colon, above 54 µM; in the assay with CCRF-CEM leukemia, above 69.7 µM; with SF-295 CNS, above 61.6 µM; in the assay with ACHN renal, above 68.9 µM; in the assay on M14 melanoma it was 36.6 µM. The TGI with HT29 colon was 45.8 µM; with RPMI-8226 leukemia, above 68.2 µM; with KM12 colon, above 59.5 µM; with NCI-H23 lung, 46.1 µM; in the assay on SF-268 CNS it was 60.8 µM; with SNB-75 CNS, 50.6 µM.
With `NC(N)=Nc1ccc(CC(N)C(=O)O)cc1` (stereo unspecified), the TGI with HL-60(TB) leukemia, with UO-31 renal, in the assay with MDA-N, in the assay on DU-145 prostate, in the assay on OVCAR-8 ovarian and in the assay with EKVX NSCLC was above 12.5 µM each time. Moreover, the TGI in the assay with HOP-62 NSCLC, in the assay with SW-620 colon, with CCRF-CEM leukemia, with SF-295 CNS, with ACHN renal and in the assay with M14 melanoma was above 12.5 µM throughout. In addition, the concentration for total growth inhibition (TGI) with HT29 colon, in the assay with RPMI-8226 leukemia, in the assay on KM12 colon, with NCI-H23 lung, in the assay on SF-268 CNS and in the assay on SNB-75 CNS was above 12.5 µM in each case.
Consider `CC(C)(C)OC(=O)N1C(c2cccnc2)=CC[C@H]2C3CC=C(c4cccnc4)[C@@]3(C)CC[C@@H]21` (stereo partly specified), for which the TGI came to 14 µM with HL-60(TB) leukemia; 17.3 µM with UO-31 renal; 9.2 µM in the assay on MDA-N; 19.2 µM in the assay with DU-145 prostate; 25 µM in the assay with OVCAR-8 ovarian; 10.3 µM in the assay with EKVX NSCLC. The TGI in the assay on HOP-62 NSCLC was 16.3 µM; in the assay on SW-620 colon it was 15.8 µM; in the assay with CCRF-CEM leukemia, 25.8 µM; in the assay on SF-295 CNS, 11.1 µM; in the assay with ACHN renal it was 11.3 µM; in the assay on M14 melanoma, 17.7 µM. In addition, the TGI in the assay with HT29 colon was found to be 11.8 µM; in the assay on RPMI-8226 leukemia, 5.05 µM; in the assay on KM12 colon, 28.8 µM; in the assay with NCI-H23 lung, 12.8 µM; in the assay on SF-268 CNS, 11.5 µM; with SNB-75 CNS, 19.7 µM.

Usually TGI stands for the concentration at which net growth stops. Low readings indicate greater sensitivity of the cells, high ones lower sensitivity of the cells.
